According to the NIST ThermoML archive (doi:10.1016/j.jct.2009.01.014):
Where “and” joins values, the source holds several entries; their conditions need not be identical. Equal entries are not always repeated. ± gives the expanded uncertainty stated by the source.

Test: molar heat capacity at constant pressure
Details: 101.33 kPa, Crystal 1, Vacuum adiabatic calorimetry

[Al+3].[Al+3].[Co+2].[O-2].[O-2].[O-2].[O-2] [aluminium cobalt oxide]
Details | molar heat capacity at constant pressure
146.83 K | 57.16 ± 0.29 J/K/mol
147.05 K | 57.28 ± 0.29 J/K/mol
149.96 K | 58.88 ± 0.3 J/K/mol
150 K | 58.9 ± 0.3 J/K/mol
150.67 K | 59.3 ± 0.3 J/K/mol
152.88 K | 60.51 ± 0.3 J/K/mol
154.53 K | 61.45 ± 0.31 J/K/mol
155.79 K | 62.12 ± 0.31 J/K/mol
158.38 K | 63.57 ± 0.32 J/K/mol
158.7 K | 63.68 ± 0.32 J/K/mol
160 K | 64.37 ± 0.32 J/K/mol
161.62 K | 65.3 ± 0.32 J/K/mol
162.25 K | 65.67 ± 0.32 J/K/mol
164.55 K | 66.89 ± 0.33 J/K/mol
166.11 K | 67.74 ± 0.33 J/K/mol
167.47 K | 68.46 ± 0.33 J/K/mol
169.98 K | 69.8 ± 0.34 J/K/mol
170 K | 69.81 ± 0.34 J/K/mol
170.39 K | 70.02 ± 0.34 J/K/mol
173.28 K | 71.53 ± 0.34 J/K/mol
173.86 K | 71.81 ± 0.35 J/K/mol
176.14 K | 73.02 ± 0.35 J/K/mol
177.74 K | 73.82 ± 0.35 J/K/mol
178.97 K | 74.47 ± 0.36 J/K/mol
180 K | 74.99 ± 0.36 J/K/mol
181.6 K | 75.79 ± 0.36 J/K/mol
181.77 K | 75.91 ± 0.36 J/K/mol
184.55 K | 77.27 ± 0.37 J/K/mol
185.41 K | 77.67 ± 0.37 J/K/mol
187.3 K | 78.65 ± 0.37 J/K/mol
189.19 K | 79.56 ± 0.37 J/K/mol
190 K | 79.97 ± 0.38 J/K/mol
190.03 K | 79.99 ± 0.38 J/K/mol
192.74 K | 81.28 ± 0.38 J/K/mol
192.91 K | 81.34 ± 0.38 J/K/mol
195.43 K | 82.61 ± 0.39 J/K/mol
196.6 K | 83.11 ± 0.39 J/K/mol
198.09 K | 83.83 ± 0.39 J/K/mol
200 K | 84.73 ± 0.39 J/K/mol
200.24 K | 84.85 ± 0.39 J/K/mol
200.74 K | 85.08 ± 0.4 J/K/mol
203.36 K | 86.29 ± 0.4 J/K/mol
203.85 K | 86.5 ± 0.4 J/K/mol
205.97 K | 87.49 ± 0.4 J/K/mol
207.42 K | 88.12 ± 0.41 J/K/mol
208.56 K | 88.63 ± 0.41 J/K/mol
210 K | 89.28 ± 0.41 J/K/mol
210.96 K | 89.71 ± 0.41 J/K/mol
211.13 K | 89.82 ± 0.41 J/K/mol
213.68 K | 90.9 ± 0.42 J/K/mol
214.47 K | 91.27 ± 0.42 J/K/mol
216.22 K | 92.07 ± 0.42 J/K/mol
217.95 K | 92.81 ± 0.43 J/K/mol
218.74 K | 93.14 ± 0.43 J/K/mol
220 K | 93.68 ± 0.43 J/K/mol
221.25 K | 94.2 ± 0.43 J/K/mol
221.4 K | 94.18 ± 0.43 J/K/mol
223.74 K | 95.23 ± 0.43 J/K/mol
224.82 K | 95.65 ± 0.44 J/K/mol
226.22 K | 96.27 ± 0.44 J/K/mol
228.21 K | 97.04 ± 0.44 J/K/mol
228.69 K | 97.25 ± 0.44 J/K/mol
230 K | 97.8 ± 0.44 J/K/mol
231.14 K | 98.26 ± 0.45 J/K/mol
231.58 K | 98.37 ± 0.45 J/K/mol
233.58 K | 99.23 ± 0.45 J/K/mol
234.92 K | 99.71 ± 0.45 J/K/mol
236.01 K | 100.16 ± 0.45 J/K/mol
238.24 K | 101.02 ± 0.46 J/K/mol
238.42 K | 101.09 ± 0.46 J/K/mol
240 K | 101.73 ± 0.46 J/K/mol
240.83 K | 102.05 ± 0.46 J/K/mol
241.54 K | 102.25 ± 0.46 J/K/mol
243.22 K | 102.92 ± 0.46 J/K/mol
244.81 K | 103.49 ± 0.47 J/K/mol
245.59 K | 103.81 ± 0.47 J/K/mol
247.96 K | 104.73 ± 0.47 J/K/mol
248.06 K | 104.72 ± 0.47 J/K/mol
250 K | 105.45 ± 0.47 J/K/mol
250.32 K | 105.57 ± 0.47 J/K/mol
251.29 K | 105.92 ± 0.48 J/K/mol
252.67 K | 106.55 ± 0.48 J/K/mol
254.51 K | 106.81 ± 0.48 J/K/mol
255.02 K | 106.86 ± 0.48 J/K/mol
257.35 K | 107.86 ± 0.48 J/K/mol
257.71 K | 108 ± 0.48 J/K/mol
259.68 K | 108.69 ± 0.49 J/K/mol
260 K | 108.81 ± 0.49 J/K/mol
260.89 K | 109.14 ± 0.49 J/K/mol
261.99 K | 109.47 ± 0.49 J/K/mol
264.06 K | 110.17 ± 0.49 J/K/mol
264.3 K | 110.3 ± 0.49 J/K/mol
266.6 K | 111.11 ± 0.5 J/K/mol
267.21 K | 111.27 ± 0.5 J/K/mol
268.89 K | 111.88 ± 0.5 J/K/mol
270 K | 112.21 ± 0.5 J/K/mol
270.34 K | 112.32 ± 0.5 J/K/mol
271.18 K | 112.63 ± 0.5 J/K/mol
273.45 K | 113.32 ± 0.5 J/K/mol and 113.36 ± 0.5 J/K/mol
275.72 K | 114.12 ± 0.51 J/K/mol
276.55 K | 114.32 ± 0.51 J/K/mol
277.98 K | 114.86 ± 0.51 J/K/mol
279.64 K | 115.3 ± 0.51 J/K/mol
280 K | 115.49 ± 0.51 J/K/mol
280.23 K | 115.61 ± 0.51 J/K/mol
282.47 K | 116.23 ± 0.52 J/K/mol
282.71 K | 116.25 ± 0.52 J/K/mol
284.71 K | 117.01 ± 0.52 J/K/mol
285.76 K | 117.27 ± 0.52 J/K/mol
286.94 K | 117.64 ± 0.52 J/K/mol
288.8 K | 118.11 ± 0.52 J/K/mol
289.16 K | 118.27 ± 0.52 J/K/mol
290 K | 118.56 ± 0.53 J/K/mol
291.38 K | 118.88 ± 0.53 J/K/mol
291.83 K | 118.87 ± 0.53 J/K/mol
293.59 K | 119.39 ± 0.53 J/K/mol
294.84 K | 119.71 ± 0.53 J/K/mol
295.8 K | 120.14 ± 0.53 J/K/mol
297.85 K | 120.6 ± 0.53 J/K/mol
298 K | 120.75 ± 0.53 J/K/mol
298.15 K | 120.8 ± 0.53 J/K/mol
300 K | 121.29 ± 0.54 J/K/mol
300.19 K | 121.32 ± 0.54 J/K/mol
300.84 K | 121.4 ± 0.54 J/K/mol
302.38 K | 121.76 ± 0.54 J/K/mol
304.56 K | 122.44 ± 0.54 J/K/mol
306.74 K | 123.1 ± 0.54 J/K/mol
308.91 K | 123.82 ± 0.55 J/K/mol
310 K | 124.03 ± 0.55 J/K/mol
311.08 K | 124.21 ± 0.55 J/K/mol
314.58 K | 125.39 ± 0.55 J/K/mol
316.31 K | 125.57 ± 0.55 J/K/mol
318.27 K | 126.1 ± 0.55 J/K/mol
320 K | 126.56 ± 0.56 J/K/mol
320.27 K | 126.63 ± 0.56 J/K/mol
322.26 K | 127.06 ± 0.56 J/K/mol
324.24 K | 127.71 ± 0.56 J/K/mol
326.23 K | 128.15 ± 0.56 J/K/mol
328.22 K | 128.71 ± 0.56 J/K/mol
330 K | 129.18 ± 0.57 J/K/mol
330.21 K | 129.23 ± 0.57 J/K/mol
332.21 K | 129.58 ± 0.57 J/K/mol
334.2 K | 130.14 ± 0.57 J/K/mol
336.19 K | 130.48 ± 0.57 J/K/mol
338.18 K | 131.04 ± 0.57 J/K/mol
340 K | 131.5 ± 0.58 J/K/mol
340.18 K | 131.54 ± 0.58 J/K/mol
342.17 K | 132 ± 0.58 J/K/mol
344.16 K | 132.51 ± 0.58 J/K/mol
346.15 K | 132.95 ± 0.58 J/K/mol
348.15 K | 133.41 ± 0.58 J/K/mol
350 K | 133.79 ± 0.58 J/K/mol
350.14 K | 133.82 ± 0.59 J/K/mol
352.14 K | 134.31 ± 0.59 J/K/mol
354.14 K | 134.84 ± 0.59 J/K/mol
356.13 K | 135.27 ± 0.59 J/K/mol
358.13 K | 135.71 ± 0.59 J/K/mol
360 K | 136.1 ± 0.59 J/K/mol
360.13 K | 136.12 ± 0.59 J/K/mol
362.13 K | 136.47 ± 0.6 J/K/mol
364.13 K | 136.92 ± 0.6 J/K/mol
366.13 K | 137.31 ± 0.6 J/K/mol
368.13 K | 137.72 ± 0.6 J/K/mol
370 K | 138.26 ± 0.6 J/K/mol
370.14 K | 138.29 ± 0.6 J/K/mol
372.14 K | 138.51 ± 0.6 J/K/mol
374.14 K | 138.93 ± 0.61 J/K/mol
376.14 K | 139.33 ± 0.61 J/K/mol
378.15 K | 139.67 ± 0.61 J/K/mol
380 K | 140.09 ± 0.61 J/K/mol
380.15 K | 140.12 ± 0.61 J/K/mol
382.16 K | 140.49 ± 0.61 J/K/mol
384.17 K | 140.86 ± 0.61 J/K/mol
386.17 K | 141.18 ± 0.61 J/K/mol
388.18 K | 141.53 ± 0.62 J/K/mol
390 K | 141.96 ± 0.62 J/K/mol
390.19 K | 142 ± 0.62 J/K/mol
392.2 K | 142.2 ± 0.62 J/K/mol
394.22 K | 142.53 ± 0.62 J/K/mol
396.23 K | 142.78 ± 0.62 J/K/mol
398.24 K | 143.19 ± 0.62 J/K/mol
400.25 K | 143.52 ± 0.62 J/K/mol
